Experiments:
[1] = test system: pseudotype SARS-COV-2; assay type: cell-based
[2] = molecular target: RBD-hACE2 binding (Severe acute respiratory syndrome coronavirus 2, UniProt P0DTC2); conditions: 3 μM concentration
[3] = molecular target: SARS-COV-2 RBD (Severe acute respiratory syndrome coronavirus 2, UniProt P0DTC2); conditions: co-incubation with P05DHu and AM 122 antibodies
Experimental: Specifically, after thermal denaturation and rapid cooling, they were co-incubated with 5 nM RBD beads (final volume: 100 μL) with gentle rotation for 1 hour at room temperature. Beads were washed three times, and resuspended in 100 μL of 1× PBSMT for analysis with CytoFLEX S (Beckman Coulter). The competitive RBD-binding fraction was calculated as the ratio of the competitive mean fluorescence intensity to the uncompetitive (free-binding) mean fluorescence intensity.

Substance: LGKGDFR [LGKGDFR peptide]
- infection rate with pseudotype SARS-COV-2 (percentage of GFP-expressing infected cells) [1]: 12.6%
- inhibition of RBD-hACE2 interaction [2]: 11.69%

Substance: R7-02 (LGKGDFRK)
- infection rate with pseudotype SARS-COV-2 (percentage of GFP-expressing infected cells) [1]: 1.9%
- neutralizing efficiency compared to other RBD binders [1]: significantly higher or comparable
- RBD binding competition between R7-02 and antibodies [3]: insignificant

Reference: patent US20250376490A1, “C[…]-DERIVED PEPTIDE-NUCLEIC ACID HYBRID MOLECULE FOR TREATING INFECTION CAUSED BY MUTATED CORONAVIRUS” (priority 2022, published 2025)
